Like-named read-outs stand apart in the source and are kept apart here.
What was measured:
IL-1β = test: LPS-stimulated whole bovine blood assay, MSD cytokine detection; type: cell-based; conditions: overstimulation of IL-1β, LPS-stimulated bovine whole blood
Description: (§1) The effect of multiple cytokines was not easily quantified using single cell types. Therefore, a fresh whole bovine blood assay was developed with LPS as a stimulant (TLR-4 agonist) and with IL-1β and TNF-α as the read-out. Compounds of the invention were evaluated against a positive control for their ability to inhibit LPS-induced IL-1β and TNF-α as an overall evaluation of relative potency and modulation of target pathways (Table 6).
In order to correlate RNA sequencing data to cytokine changes the whole blood assay was utilized. […] The enhancement result represents an overall stimulation of cytokine levels due to cellular stress or potential toxicity with increasing concentrations of the compound, representing a typical bell shape response curve for immunomodulatory activity.
In the bovine whole blood in vitro screening assay the inhibition of TNFα as induced by stimulation by lipopolysaccharide (LPS) and as measured by half the maximal inhibitory concentration (IC50) is recognized as the primary biomarker of immunomodulation potency upon pretreatment with the compounds of the invention.

TNF-α = test: as above; type: cell-based; conditions: Bos taurus, LPS-stimulated bovine whole blood; read-out: TNF-α (IC50 μM)
Description: as §1, with “Therefore,” for “The effect of multiple cytokines was not easily quantified using single cell types. Therefore,”
In the bovine whole blood in vitro screening assay the inhibition of TNFα as induced by stimulation by lipopolysaccharide (LPS) and as measured by half the maximal inhibitory concentration (IC50) is recognized as the primary biomarker of immunomodulation potency upon pretreatment with the compounds of the invention. IL-1β is a mediator of the inflammation response and is involved in a number of cellular activities including proliferation, differentiation and apoptosis. IL-1β is also released upon cellular stress or cytotoxicity or upon TLR stimulation. In the bovine whole blood assay the stimulation of IL-1β release upon increasing concentration of test compound is seen as a potential cellular toxicity signal as induced by the test compound. In order to estimate a therapeutic index from the in vitro assay a differential between the TNFα IC50 (immunomodulation potency) versus the perceived cellular toxicity concentration (IL-1β release or overstimulation) was utilized.

[1] = test system: BRD pathogens, M. haemolytica and P. multocida; test: MIC screening panel of BRD pathogens (antibacterial / non-antibacterial)
[2] = read-out: antibacterial / non-antibacterial (MIC for the BRD pathogens)

Row | Compound | IL-1β OS of LPS (IL-1β) [µM] | IC50 (TNF-α) [µM] | MIC [1, 2] [µg/mL] | MIC ([1]; read-out: MIC ≤64 μg/mL for at least one of the bacterial strains (flag * at Ex #)) [µg/mL]
1 | CCCNC[C@]1(O)[C@H](C)O[C@@H](O[C@H]2[C@H](C)[C@@H](O[C@@H]3O[C@H](C)C[C@H](N(C)C(=O)N(C)Cc4ccccc4)[C@H]3O)[C@](C)(O)C[C@@H](C)CN[C@H](C)[C@@H](O)[C@](C)(O)[C@@H](CC)OC(=O)[C@@H]2C)C[C@@]1(C)OC [Example H-40, 1-benzyl-3-((2S,3R,4S,6R)-2-(((2R,3S,4R,5R,8R,10R,11R,12S,13S,14R)-2-ethyl-3,4,10-trihydroxy-13-(((2R,4R,5S,6S)-5-hydroxy-4-methoxy-4,6-dimethyl-5-((propylamino)methyl)tetrahydro-2H-pyran-2-yl)oxy)-3,5,8,10,12,14-hexamethyl-15-oxo-1-oxa-6-azacyclopentadecan-11-yl)oxy)-3-hydroxy-6-methyltetrahydro-2H-pyran-4-yl)-1,3-dimethylurea] | 40 | 45 | > 64 | 
2 | CC[C@H]1OC(=O)[C@H](C)[C@@H](O[C@H]2C[C@@](C)(OC)[C@](O)(CN3CCc4ccccc4C3)[C@H](C)O2)[C@H](C)[C@@H](O[C@@H]2O[C@H](C)C[C@H](N(C)C(=O)N(C)c3ccccc3)[C@H]2O)[C@](C)(O)C[C@@H](C)CN[C@H](C)[C@@H](O)[C@]1(C)O [Example J-25, 1-((2S,3R,4S,6R)-2-(((2R,3S,4R,5R,8R,10R,11R,12S,13S,14R)-13-(((2R,4R,5S,6S)-5-((3,4-dihydroisoquinolin-2(1H)-yl)methyl)-5-hydroxy-4-methoxy-4,6-dimethyltetrahydro-2H-pyran-2-yl)oxy)-2-ethyl-3,4,10-trihydroxy-3,5,8,10,12,14-hexamethyl-15-oxo-1-oxa-6-azacyclopentadecan-11-yl)oxy)-3-hydroxy-6-methyltetrahydro-2H-pyran-4-yl)-1,3-dimethyl-3-phenylurea] | 16 | 6 |  | < 64
3 | CCCNC[C@]1(O)[C@H](C)O[C@@H](O[C@H]2[C@H](C)[C@@H](O[C@@H]3O[C@H](C)C[C@H](N(C)C(=O)N(CC(F)(F)F)c4ccccc4)[C@H]3O)[C@](C)(O)C[C@@H](C)CN[C@H](C)[C@@H](O)[C@](C)(O)[C@@H](CC)OC(=O)[C@@H]2C)C[C@@]1(C)OC [Example H-54, 1-((2S,3R,4S,6R)-2-(((2R,3S,4R,5R,8R,10R,11R,12S,13S,14R)-2-ethyl-3,4,10-trihydroxy-13-(((2R,4R,5S,6S)-5-hydroxy-4-methoxy-4,6-dimethyl-5-((propylamino)methyl)tetrahydro-2H-pyran-2-yl)oxy)-3,5,8,10,12,14-hexamethyl-15-oxo-1-oxa-6-azacyclopentadecan-11-yl)oxy)-3-hydroxy-6-methyltetrahydro-2H-pyran-4-yl)-1-methyl-3-phenyl-3-(2,2,2-trifluoroethyl)urea] | 6 | 9 | > 64 | 
4 | CC[C@H]1OC(=O)[C@H](C)[C@@H](O[C@H]2C[C@@](C)(OC)[C@](O)(CN3CC(N4CCCCC4)C3)[C@H](C)O2)[C@H](C)[C@@H](O[C@@H]2O[C@H](C)C[C@H](N(C)C(=O)N(C)c3ccccc3)[C@H]2O)[C@](C)(O)C[C@@H](C)CN[C@H](C)[C@@H](O)[C@]1(C)O [Example J-19, 1-((2S,3R,4S,6R)-2-(((2R,3S,4R,5R,8R,10R,11R,12S,13S,14R)-2-ethyl-3,4,10-trihydroxy-13-(((2R,4R,5S,6S)-5-hydroxy-4-methoxy-4,6-dimethyl-5-((3-(piperidin-1-yl)azetidin-1-yl)methyl)tetrahydro-2H-pyran-2-yl)oxy)-3,5,8,10,12,14-hexamethyl-15-oxo-1-oxa-6-azacyclopentadecan-11-yl)oxy)-3-hydroxy-6-methyltetrahydro-2H-pyran-4-yl)-1,3-dimethyl-3-phenylurea] | 16 | 19 | > 64 | 

Source: US12295936B2, “Immunomodulating urea azalides” (Zoetis Services LLC, priority 2020, dated 2025)
